Test: Foam test, dispensing from a foam dispenser
Format: physicochemical
Settings: in the presence of an alcohol
Method: Preferably, the foam booster used in the composition of the invention provides a stable foam when dispensing a composition consisting of 36% (w/w) ethanol and 0.2% (w/w), preferably 0.3% (w/w), of the foam booster from a foam dispenser with a relatively high air to liquid ratio, preferably an air to liquid ratio of 9-11, more preferably an air to liquid ratio of 11, on an inert and smooth surface at about 20° C. A suitable foam pump is for instance the L11 foam pump from Rexam Airspray, which has an air to liquid ratio of 11, a liquid output volume of 0.75 ml, a stroke of 14.8 mm. The foam is optimally produced by applying regular speed and pressure onto the foam dispenser, as is known to one skilled in the art.
According to this invention, a stable foam is a foam that remains as a foam for at least 5-10 seconds, preferably for at least 10-15 seconds, more preferably for at least 15-20 seconds, even more preferably for at least 20-25 seconds, most preferably for at least 25-30 seconds, as measured immediately after dispensing from a foam dispenser as mentioned above.

Row | Compound | Foam stability as foam booster
1 | CCCCCCCCCCCCc1ccc(S(=O)(=O)O)cc1 [dodecyl benzene sulphonic acid] | do not provide a stable foam
2 | sodium lauryl ether sulphate | do not provide a stable foam
